According to PubChem BioAssay (NCI):
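Growth conditions: 96-well plates. Treatment: test compound, 48 hours, 5 concentrations. Analysis: linear interpolation between bracketing concentrations; unreached endpoints set to highest concentration. The concentration for full growth arrest is given as TGI.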

How the values were obtained:
Test in all cases: NCI anticancer screen, dose series, 48 h
786-0 renal = tested on: 786-0 renal
A498 renal = tested on: A498 renal
A549 NSCLC = tested on: A549 NSCLC
ACHN renal = tested on: ACHN renal
CAKI-1 renal = tested on: CAKI-1 renal
CCRF-CEM leukemia = tested on: CCRF-CEM leukemia
COLO 205 colon = tested on: COLO 205 colon
DLD-1 colon = tested on: DLD-1 colon
DMS 114 small cell lung = tested on: DMS 114 small cell lung
DMS 273 small cell lung = tested on: DMS 273 small cell lung
EKVX NSCLC = tested on: EKVX NSCLC
HCC-2998 colon = tested on: HCC-2998 colon
HCT-116 colon = tested on: HCT-116 colon
HCT-15 colon = tested on: HCT-15 colon
HL-60(TB) leukemia = tested on: HL-60(TB) leukemia
HOP-18 NSCLC = tested on: HOP-18 NSCLC
HOP-92 NSCLC = tested on: HOP-92 NSCLC
HT29 colon = tested on: HT29 colon
IGROV1 ovarian = tested on: IGROV1 ovarian
K-562 leukemia = tested on: K-562 leukemia
KM12 colon = tested on: KM12 colon
LOX IMVI melanoma = tested on: LOX IMVI melanoma
LXFL 529 NSCLC = tested on: LXFL 529 NSCLC
M14 melanoma = tested on: M14 melanoma
MALME-3M melanoma = tested on: MALME-3M melanoma
MOLT-4 leukemia = tested on: MOLT-4 leukemia
NCI-H226 lung = tested on: NCI-H226 lung
NCI-H23 lung = tested on: NCI-H23 lung
NCI-H460 lung = tested on: NCI-H460 lung
NCI-H522 lung = tested on: NCI-H522 lung
OVCAR-3 ovarian = tested on: OVCAR-3 ovarian
OVCAR-8 ovarian = tested on: OVCAR-8 ovarian
RPMI-8226 leukemia = tested on: RPMI-8226 leukemia
RXF 393 renal = tested on: RXF 393 renal
RXF-631 renal = tested on: RXF-631 renal
SF-295 CNS = tested on: SF-295 CNS
SF-539 CNS = tested on: SF-539 CNS
SK-MEL-28 melanoma = tested on: SK-MEL-28 melanoma
SK-MEL-5 melanoma = tested on: SK-MEL-5 melanoma
SK-OV-3 ovarian = tested on: SK-OV-3 ovarian
SN12C renal = tested on: SN12C renal
SNB-19 CNS = tested on: SNB-19 CNS
SNB-75 CNS = tested on: SNB-75 CNS
SNB-78 CNS = tested on: SNB-78 CNS
SW-620 colon = tested on: SW-620 colon
TK-10 renal = tested on: TK-10 renal
U251 CNS = tested on: U251 CNS
UACC-257 melanoma = tested on: UACC-257 melanoma
UACC-62 melanoma = tested on: UACC-62 melanoma
UO-31 renal = tested on: UO-31 renal
KM20L2 colon = tested on: KM20L2 colon
M19-MEL melanoma = tested on: M19-MEL melanoma
OVCAR-4 ovarian = tested on: OVCAR-4 ovarian
OVCAR-5 ovarian = tested on: OVCAR-5 ovarian
SF-268 CNS = tested on: SF-268 CNS
SK-MEL-2 melanoma = tested on: SK-MEL-2 melanoma
XF 498 CNS = tested on: XF 498 CNS
HOP-62 NSCLC = tested on: HOP-62 NSCLC
SR leukemia = tested on: SR leukemia

Measured: TGI

NC(CCc1ncc(-c2ccccc2)s1)C(=O)O (stereo not drawn)
> 100 µM: 786-0 renal | A498 renal | A549 NSCLC | ACHN renal | CAKI-1 renal | CCRF-CEM leukemia | COLO 205 colon | DLD-1 colon | DMS 114 small cell lung | DMS 273 small cell lung | EKVX NSCLC | HCC-2998 colon | HCT-116 colon | HCT-15 colon | HL-60(TB) leukemia | HOP-18 NSCLC | HOP-92 NSCLC | HT29 colon | IGROV1 ovarian | K-562 leukemia | KM12 colon | LOX IMVI melanoma | LXFL 529 NSCLC | M14 melanoma | MALME-3M melanoma | MOLT-4 leukemia | NCI-H226 lung | NCI-H23 lung | NCI-H460 lung | NCI-H522 lung | OVCAR-3 ovarian | OVCAR-8 ovarian | RPMI-8226 leukemia | RXF 393 renal | RXF-631 renal | SF-295 CNS | SF-539 CNS | SK-MEL-28 melanoma | SK-MEL-5 melanoma | SK-OV-3 ovarian | SN12C renal | SNB-19 CNS | SNB-75 CNS | SNB-78 CNS | SW-620 colon | TK-10 renal | U251 CNS | UACC-257 melanoma | UACC-62 melanoma | UO-31 renal

COc1ccccc1NC(=O)C1=C(C)NC(C)=C(C(=O)Nc2ccccc2OC)C1c1cccc2ccccc12
7.87 µM: HOP-92 NSCLC
> 100 µM: 786-0 renal | A498 renal | A549 NSCLC | ACHN renal | CAKI-1 renal | CCRF-CEM leukemia | COLO 205 colon | DLD-1 colon | DMS 114 small cell lung | DMS 273 small cell lung | EKVX NSCLC | HCC-2998 colon | HCT-116 colon | HCT-15 colon | HL-60(TB) leukemia | HOP-18 NSCLC | HT29 colon | IGROV1 ovarian | K-562 leukemia | KM12 colon | KM20L2 colon | LOX IMVI melanoma | LXFL 529 NSCLC | M14 melanoma | M19-MEL melanoma | MALME-3M melanoma | MOLT-4 leukemia | NCI-H226 lung | NCI-H23 lung | NCI-H460 lung | OVCAR-3 ovarian | OVCAR-5 ovarian | OVCAR-8 ovarian | RPMI-8226 leukemia | RXF 393 renal | RXF-631 renal | SF-268 CNS | SF-295 CNS | SF-539 CNS | SK-MEL-2 melanoma | SK-MEL-28 melanoma | SK-MEL-5 melanoma | SK-OV-3 ovarian | SN12C renal | SNB-19 CNS | SW-620 colon | TK-10 renal | U251 CNS | UACC-257 melanoma | UACC-62 melanoma | UO-31 renal | XF 498 CNS
98.8 µM: SNB-75 CNS
62.5 µM: SNB-78 CNS
41.5 µM: OVCAR-4 ovarian

CC(O)C(NC(=O)c1ccccc1)C(=O)N(Cc1ccccc1)Cc1ccccc1 (stereo not drawn)
49.9 µM: CAKI-1 renal
26.5 µM: NCI-H522 lung
> 100 µM: 786-0 renal | A498 renal | A549 NSCLC | ACHN renal | CCRF-CEM leukemia | COLO 205 colon | DLD-1 colon | DMS 114 small cell lung | DMS 273 small cell lung | EKVX NSCLC | HCC-2998 colon | HCT-15 colon | HL-60(TB) leukemia | HOP-18 NSCLC | HOP-62 NSCLC | HOP-92 NSCLC | IGROV1 ovarian | K-562 leukemia | KM12 colon | KM20L2 colon | LOX IMVI melanoma | LXFL 529 NSCLC | M14 melanoma | M19-MEL melanoma | MALME-3M melanoma | MOLT-4 leukemia | NCI-H226 lung | NCI-H23 lung | NCI-H460 lung | OVCAR-3 ovarian | OVCAR-4 ovarian | OVCAR-5 ovarian | OVCAR-8 ovarian | RPMI-8226 leukemia | RXF-631 renal | SF-268 CNS | SF-295 CNS | SF-539 CNS | SK-MEL-2 melanoma | SK-MEL-28 melanoma | SK-MEL-5 melanoma | SK-OV-3 ovarian | SN12C renal | SNB-19 CNS | SNB-75 CNS | SNB-78 CNS | SW-620 colon | TK-10 renal | U251 CNS | UACC-257 melanoma | UACC-62 melanoma | UO-31 renal | XF 498 CNS

C[N+](C)(C)CC(CC(=O)[O-])C1CC1 (stereo not drawn)
> 100 µM: 786-0 renal | A498 renal | A549 NSCLC | ACHN renal | CAKI-1 renal | CCRF-CEM leukemia | COLO 205 colon | DMS 114 small cell lung | DMS 273 small cell lung | EKVX NSCLC | HCT-15 colon | HL-60(TB) leukemia | HOP-18 NSCLC | HOP-62 NSCLC | HOP-92 NSCLC | HT29 colon | IGROV1 ovarian | K-562 leukemia | KM12 colon | KM20L2 colon | LOX IMVI melanoma | LXFL 529 NSCLC | M14 melanoma | M19-MEL melanoma | MALME-3M melanoma | MOLT-4 leukemia | NCI-H23 lung | NCI-H460 lung | NCI-H522 lung | OVCAR-3 ovarian | OVCAR-4 ovarian | OVCAR-5 ovarian | OVCAR-8 ovarian | RPMI-8226 leukemia | RXF 393 renal | RXF-631 renal | SF-268 CNS | SF-295 CNS | SF-539 CNS | SK-MEL-2 melanoma | SK-MEL-28 melanoma | SK-MEL-5 melanoma | SK-OV-3 ovarian | SN12C renal | SNB-19 CNS | SNB-75 CNS | SW-620 colon | TK-10 renal | U251 CNS | UACC-257 melanoma | UACC-62 melanoma | UO-31 renal | XF 498 CNS

O=C1c2cccc3c(Cl)ccc(c23)C(=O)N1CCCN1CCN(CCCN2C(=O)c3cccc4c(Cl)ccc(c34)C2=O)CC1
> 100 µM: 786-0 renal | A498 renal | A549 NSCLC | ACHN renal | CAKI-1 renal | CCRF-CEM leukemia | COLO 205 colon | DLD-1 colon | DMS 114 small cell lung | DMS 273 small cell lung | EKVX NSCLC | HCC-2998 colon | HCT-116 colon | HCT-15 colon | HL-60(TB) leukemia | HOP-18 NSCLC | HOP-62 NSCLC | HOP-92 NSCLC | HT29 colon | IGROV1 ovarian | K-562 leukemia | KM12 colon | KM20L2 colon | LOX IMVI melanoma | LXFL 529 NSCLC | M14 melanoma | MALME-3M melanoma | MOLT-4 leukemia | NCI-H226 lung | NCI-H23 lung | NCI-H460 lung | OVCAR-3 ovarian | OVCAR-4 ovarian | OVCAR-5 ovarian | OVCAR-8 ovarian | RPMI-8226 leukemia | RXF-631 renal | SF-295 CNS | SF-539 CNS | SK-MEL-2 melanoma | SK-MEL-5 melanoma | SK-OV-3 ovarian | SN12C renal | SNB-19 CNS | SNB-75 CNS | SNB-78 CNS | SW-620 colon | TK-10 renal | U251 CNS | UACC-257 melanoma | UACC-62 melanoma | UO-31 renal | XF 498 CNS

O=C1CCNC(=O)NC1
56.6 µM: MOLT-4 leukemia
> 100 µM: 786-0 renal | A498 renal | A549 NSCLC | ACHN renal | CAKI-1 renal | CCRF-CEM leukemia | COLO 205 colon | DLD-1 colon | DMS 114 small cell lung | DMS 273 small cell lung | EKVX NSCLC | HCT-116 colon | HCT-15 colon | HL-60(TB) leukemia | HOP-18 NSCLC | HOP-62 NSCLC | HOP-92 NSCLC | HT29 colon | IGROV1 ovarian | K-562 leukemia | KM12 colon | KM20L2 colon | LOX IMVI melanoma | LXFL 529 NSCLC | M14 melanoma | M19-MEL melanoma | MALME-3M melanoma | NCI-H226 lung | NCI-H460 lung | NCI-H522 lung | OVCAR-3 ovarian | OVCAR-4 ovarian | OVCAR-5 ovarian | OVCAR-8 ovarian | RPMI-8226 leukemia | RXF 393 renal | RXF-631 renal | SF-268 CNS | SF-295 CNS | SK-MEL-2 melanoma | SK-MEL-28 melanoma | SK-MEL-5 melanoma | SK-OV-3 ovarian | SN12C renal | SNB-19 CNS | SNB-75 CNS | SNB-78 CNS | SR leukemia | SW-620 colon | TK-10 renal | U251 CNS | UACC-257 melanoma | UACC-62 melanoma | UO-31 renal | XF 498 CNS
